PubChem BioAssay AID248 (DTP/NCI, 2004)
Where “and” joins values, the source holds several entries; their conditions need not be identical. Equal values may be shown once. Toxic doses and inconclusive results are not listed. Rule as the data show it: active = T/C of 150% or more; inactive = T/C below 125%.

Tested on: L1210 leukemia ip in BDF1 mice, survival T/C
Test: NCI In Vivo Anticancer Drug Screen. Data for tumor model L1210 Leukemia (intraperitoneal) in B6D2F1 (BDF1) mice
Settings: endpoint: mean survival time, higher = longer survival
How it was run: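 Value reflects the ratio of survival in compound-treated mice to survival in vehicle-treated controls, with both groups carrying the same transplanted tumor.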

[1] = dose: 12.5 mg/kg/injection, schedule: Q01DX009 (ip), vehicle: Klucel (hydroxypropylcellulose) (HPC)
[2] = dose: 25.0 mg/kg/injection, schedule: Q01DX009 (ip), vehicle: Klucel (hydroxypropylcellulose) (HPC)
[3] = dose: 50.0 mg/kg/injection, schedule: Q01DX009 (ip), vehicle: Klucel (hydroxypropylcellulose) (HPC)
[4] = dose: 100.0 mg/kg/injection, schedule: Q01DX009 (ip), vehicle: Klucel (hydroxypropylcellulose) (HPC)
[5] = dose: 100.0 mg/kg/injection, schedule: Q04DX003 (ip), vehicle: Klucel (hydroxypropylcellulose) (HPC)
[6] = dose: 200.0 mg/kg/injection, schedule: Q01DX009 (ip), vehicle: Klucel (hydroxypropylcellulose) (HPC)
[7] = dose: 200.0 mg/kg/injection, schedule: Q04DX003 (ip), vehicle: Klucel (hydroxypropylcellulose) (HPC)
[8] = dose: 400.0 mg/kg/injection, schedule: Q01DX009 (ip), vehicle: Klucel (hydroxypropylcellulose) (HPC)
[9] = dose: 400.0 mg/kg/injection, schedule: Q04DX003 (ip), vehicle: Klucel (hydroxypropylcellulose) (HPC)
[10] = dose: 50.0 mg/kg/injection, schedule: Q04DX003 (ip), vehicle: Klucel (hydroxypropylcellulose) (HPC)
[11] = dose: 100.0 mg/kg/injection, schedule: Q01DX009 (ip), vehicle: saline with Tween-80
[12] = dose: 200.0 mg/kg/injection, schedule: Q01DX009 (ip), vehicle: saline with Tween-80
[13] = dose: 400.0 mg/kg/injection, schedule: Q01DX009 (ip), vehicle: saline with Tween-80
[14] = dose: 100.0 mg/kg/injection, schedule: Q04DX003 (ip), vehicle: saline with Tween-80
[15] = dose: 200.0 mg/kg/injection, schedule: Q04DX003 (ip), vehicle: saline with Tween-80
[16] = dose: 400.0 mg/kg/injection, schedule: Q04DX003 (ip), vehicle: saline with Tween-80
[17] = dose: 100.0 mg/kg/injection, schedule: Q01DX001 (ip), vehicle: saline with Tween-80
[18] = dose: 100.0 mg/kg/injection, schedule: Q04DX002 (ip), vehicle: saline with Tween-80
[19] = dose: 200.0 mg/kg/injection, schedule: Q01DX001 (ip), vehicle: saline with Tween-80
[20] = dose: 200.0 mg/kg/injection, schedule: Q04DX002 (ip), vehicle: saline with Tween-80
[21] = dose: 400.0 mg/kg/injection, schedule: Q01DX001 (ip), vehicle: saline with Tween-80
[22] = dose: 400.0 mg/kg/injection, schedule: Q04DX002 (ip), vehicle: saline with Tween-80

Measured: T/C

C=C1CC[N+]2(CCCC)CCCC12 (configuration not stated)
inactive: [1] 103 % of control | [2] 97 % of control | [3] 95 % of control

CCN(CC)C(C)COC(=O)c1ccc(N)cc1 (configuration not stated)
inactive: dose: 12.5 mg/kg/injection, schedule: Q01DX009 (ip), vehicle: saline 101 % of control | dose: 25.0 mg/kg/injection, schedule: Q01DX009 (ip), vehicle: saline 101 % of control | dose: 50.0 mg/kg/injection, schedule: Q01DX009 (ip), vehicle: saline 95 % of control

COC1OC(COS(C)(=O)=O)C(O)C(O)C1OS(C)(=O)=O (configuration not stated)
inactive: [4] 109 % of control | [5] 106 % of control | [6] 95 % of control | [7] 102 % of control | [8] 111 % of control | [9] 102 % of control

O=C(COc1cccc(Cl)c1)Nc1cccc(CN2C(=O)c3ccccc3C2=O)c1
inactive: [10] 96 % of control | [5] 98 % of control | [7] 95 % of control

CN(C)/N=C/c1ccccn1
inactive: dose: 100.0 mg/kg/injection, schedule: Q04DX003 (ip), vehicle: saline 106 % of control | dose: 200.0 mg/kg/injection, schedule: Q04DX003 (ip), vehicle: saline 109 % of control

CN(/N=N/c1nc[nH]c1C(N)=O)C(C)(C)C
inactive: dose: 12.5 mg/kg/injection, schedule: Q01DX009 (ip), vehicle: saline with Tween-80 103 % of control | dose: 12.5 mg/kg/injection, schedule: Q04DX009 (ip), vehicle: saline with Tween-80 98 % of control | dose: 25.0 mg/kg/injection, schedule: Q01DX009 (ip), vehicle: saline with Tween-80 93 % of control | dose: 25.0 mg/kg/injection, schedule: Q04DX003 (ip), vehicle: Klucel (hydroxypropylcellulose) (HPC) 100 % of control | dose: 25.0 mg/kg/injection, schedule: Q04DX009 (ip), vehicle: saline with Tween-80 103 % of control | dose: 50.0 mg/kg/injection, schedule: Q01DX009 (ip), vehicle: saline with Tween-80 101 % of control | [10] 103 % of control | dose: 50.0 mg/kg/injection, schedule: Q04DX009 (ip), vehicle: saline with Tween-80 103 % of control | [4] 97 % of control | [11] 103 % of control | [5] 102 % of control | dose: 100.0 mg/kg/injection, schedule: Q04DX009 (ip), vehicle: saline with Tween-80 103 % of control | [6] 96 % of control | [12] 103 % of control | [7] 111 % of control | dose: 200.0 mg/kg/injection, schedule: Q04DX009 (ip), vehicle: saline with Tween-80 101 % of control | [8] 97 % of control | [13] 97 % of control | [9] 105 % of control | dose: 400.0 mg/kg/injection, schedule: Q04DX009 (ip), vehicle: saline with Tween-80 101 % of control

Nc1ccc(-c2ccc(Nc3cc(S(=O)(=O)O)c(N)c4c3C(=O)c3ccccc3C4=O)cc2)c(S(=O)(=O)O)c1
inactive: dose: 10.0 mg/kg/injection, schedule: Q01DX001 (ip), vehicle: acetone 96 % of control | dose: 20.0 mg/kg/injection, schedule: Q01DX001 (ip), vehicle: acetone 89 % of control | dose: 40.0 mg/kg/injection, schedule: Q01DX001 (ip), vehicle: acetone 100 % of control

COC(=O)N/N=C/c1ccc(NC(C)=O)cc1
inactive: [4] 95 % of control | [6] 101 % of control | [8] 97 % of control

O=C(Nc1cccc(S(=O)(=O)F)c1)c1ccc(COc2ccc([N+](=O)[O-])cc2Cl)cc1
inactive: dose: 100.0 mg/kg/injection, schedule: Q01DX009 (ip), vehicle: saline sonified 100 % of control | [14] 97 % of control | dose: 200.0 mg/kg/injection, schedule: Q01DX009 (ip), vehicle: saline sonified 100 % of control | [15] 100 % of control | dose: 400.0 mg/kg/injection, schedule: Q01DX009 (ip), vehicle: saline sonified 94 % of control | [16] 94 % of control

CC(=O)OC1=C(CC(C)(C)C)C(=O)c2ccccc2C1=O
inactive: dose: 50.0 mg/kg/injection, schedule: Q01DX001 (ip), vehicle: carboxymethylcellulose (CMC) 103 % of control | dose: 100.0 mg/kg/injection, schedule: Q01DX001 (ip), vehicle: carboxymethylcellulose (CMC) 103 % of control | dose: 200.0 mg/kg/injection, schedule: Q01DX001 (ip), vehicle: carboxymethylcellulose (CMC) 100 % of control | dose: 400.0 mg/kg/injection, schedule: Q01DX001 (ip), vehicle: carboxymethylcellulose (CMC) 105 % of control

CC(C)(C)OC(=O)CCC(NC(=O)OCc1ccccc1)C(=O)NN (configuration not stated)
inactive: [3] 100 % of control | dose: 75.0 mg/kg/injection, schedule: Q01DX001 (ip), vehicle: Klucel (hydroxypropylcellulose) (HPC) 88 % of control | [4] 110 % of control | [5] 99 % of control | dose: 150.0 mg/kg/injection, schedule: Q01DX001 (ip), vehicle: Klucel (hydroxypropylcellulose) (HPC) 108 % of control | [6] 100 % of control | [7] 106 % of control | dose: 300.0 mg/kg/injection, schedule: Q01DX001 (ip), vehicle: Klucel (hydroxypropylcellulose) (HPC) 92 % of control | [9] 105 % of control

Cn1nc2c(c1-c1ccc(O)cc1)CCCc1ccccc1-2
inactive: [5] 100 % of control | [7] 98 % of control | [9] 98 % of control

N#Cc1c(Br)n(C2OC(CO)C(O)C2O)c2ncncc12 (configuration not stated)
inactive: dose: 100.0 mg/kg/injection, schedule: Q01DX005 (ip), vehicle: saline 114 % of control | dose: 200.0 mg/kg/injection, schedule: Q01DX005 (ip), vehicle: saline 114 % of control

CSc1ccc(NC(=O)NCCc2ccccc2)cc1
inactive: [11] 94 % of control | [5] 96 % of control | [12] 102 % of control | [7] 96 % of control | [13] 107 % of control | [9] 104 % of control

O=[As](O)(O)Cc1ccc(F)cc1
inactive: dose: 6.25 mg/kg/injection, schedule: Q01DX009 (ip), vehicle: Klucel (hydroxypropylcellulose) (HPC) 96 % of control | [1] 105 % of control | [2] 108 % of control

CCn1cc([N+](=O)[O-])ccc1=O
inactive: [4] 104 % of control | [5] 98 % of control | [6] 101 % of control | [7] 96 % of control | [8] 98 % of control | [9] 107 % of control

CN(C)CC(=O)c1c[nH]c(=O)[nH]c1=O
inactive: [11] 112 % of control | [12] 94 % of control | [13] 102 % of control

CC(=O)OC1CC(C)(C)CC(OC(C)=O)C1(C)C (configuration not stated)
inactive: dose: 75.0 mg/kg/injection, schedule: Q01DX001 (ip), vehicle: saline 100 % of control | dose: 150.0 mg/kg/injection, schedule: Q01DX001 (ip), vehicle: saline 111 % of control

CCOC(=O)c1ccc(NC(=O)Oc2ccc3ccccc3c2)cc1
inactive: [17] 96 % of control | [11] 100 % of control and 90 % of control | [18] 99 % of control and 88 % of control | [19] 93 % of control and 86 % of control | [12] 92 % of control and 100 % of control | [20] 97 % of control and 91 % of control | [21] 93 % of control and 91 % of control | [13] 100 % of control and 90 % of control | [22] 92 % of control and 88 % of control

COc1cccc(NC(=O)Nc2ccccc2OC)c1
inactive: [4] 106 % of control | [5] 100 % of control | [6] 108 % of control | [7] 97 % of control | [8] 103 % of control | [9] 100 % of control

Cc1c(Cl)cccc1NC(=O)Nc1cccc(C(F)(F)F)c1
inactive: [17] 87 % of control and 88 % of control | [11] 94 % of control and 104 % of control | [18] 93 % of control and 90 % of control | [14] 94 % of control | [19] 91 % of control | [12] 93 % of control and 97 % of control | [20] 88 % of control and 89 % of control | [15] 97 % of control | [21] 94 % of control and 89 % of control | [13] 100 % of control and 104 % of control | [22] 100 % of control and 90 % of control | [16] 96 % of control

Cc1ccc(NC(=O)Nc2ccc(C)c(NC(=O)Nc3ccc(C)cc3C)c2)c(C)c1
inactive: [14] 90 % of control | [12] 103 % of control | [15] 95 % of control | [13] 109 % of control | [16] 93 % of control

CC(OC(C)c1ccccc1)c1ccccc1 (configuration not stated)
inactive: [4] 96 % of control | [6] 105 % of control | [8] 101 % of control
